Assay results as given in ChEMBL document CHEMBL5335777 (Eur J Med Chem, 2023).
The source made the active and inactive calls. No cut-off for these calls is given here.

Assays:
[1] = Cytotoxicity against human MRC5 cells assessed as inhibition of cell growth incubated for 72 hrs by MTT assay; type: toxicity, cell-based
BXPC-3 = assay: Antiproliferative activity against human BXPC-3 cells harboring wild type KRAS assessed as inhibition of cell growth incubated for 72 hrs by MTT assay; type: functional, cell-based; conditions: BXPC-3, 72 h
NCI-H1792 [2] = assay: Antiproliferative activity against human NCI-H1792 cells harboring KRAS G12C mutant assessed as cell viability at 25 uM incubated for 72 hrs by MTT assay relative to control; type: functional; conditions: read-out: Activity
LCLC-103H cell line [3] = assay: Antiproliferative activity against human LCLC-103H cells harboring wild type KRAS assessed as inhibition of cell growth incubated for 72 hrs by MTT assay; type: functional, cell-based
PANC-1 = assay: Antiproliferative activity against human PANC-1 cells harboring heterozygous KRAS G12D mutant assessed as inhibition of cell growth incubated for 72 hrs by MTT assay; type: functional, cell-based; conditions: PANC-1, 72 h
[4] = tested on: GTPase KRas (Homo sapiens), P01116 [G12C]; assay: Covalent binding affinity to GDP-bound human KRAS-4B G12C mutant (1 to 169 residues) expressed in Escherichia coli BL21 Rosetta cells assessed as labelling on Cys12 residue by intact LCMS analysis
[5] = Cmax in NOD-SCID mouse at 15 mg/kg, ip administered as single dose and measured upto 48 hrs by HPLC/MS analysis; type: ADME, organism-based; parameters: time < 48 hrs, dose 15 mg/kg, route ip; conditions: in vivo
LCLC-103H cell line [6] = assay: Antitumor activity against human LCLC-103H cells harboring wild type KRAS xenografted in immunodeficient NOD-SCID mouse assessed as tumor volume at 5 to 30 mg/kg, ip administered for 5 times at 5 mg/kg in first week followed by administration at 20 mg/kg 5 times in second week and further administered 30 mg/kg 3 times in third week measured 17 days post treatment initiation and 35 days post tumor transplantation by digital caliper based analysis; type: functional; conditions: dose 5-30 mg/kg, time 17 day
NCI-H1792 [7] = assay: Antitumor activity against human NCI-H1792 cells harboring KRAS G12C mutant xenografted in immunodeficient NOD-SCID mouse assessed as reduction in tumor growth at 5 to 30 mg/kg, ip administered for 5 times at 5 mg/kg in first week followed by administration at 20 mg/kg 5 times in second week and further administered 30 mg/kg 3 times in third week measured 17 days post treatment initiation and 35 days post tumor transplantation by digital caliper based analysis relative to control; type: functional; parameters: scale not given: the % may be the effect or the level left; conditions: dose 5-30 mg/kg, time 17 day
[8] = tested on: GTPase KRas (Homo sapiens), P01116 [G12C]; assay: Covalent binding affinity to GDP-bound human KRAS-4B G12C mutant (1 to 169 residues) expressed in Escherichia coli BL21 Rosetta cells assessed as reduction in free Cys residues at 200 uM measured after 1 hr by Ellman's assay
[9] = Antiproliferative activity against human HCA-7 cells harboring wild type KRAS assessed as inhibition of cell growth incubated for 72 hrs by MTT assay; type: functional, cell-based, HCA7; conditions: HCA-7, 72 h
NCI-H358 = assay: Antiproliferative activity against human NCI-H358 cells harboring heterozygous KRAS G12C mutant assessed as inhibition of cell growth incubated for 72 hrs by MTT assay; type: functional, cell-based; conditions: NCI-H358, 72 h
[10] = Clearance in NOD-SCID mouse at 15 mg/kg, ip administered as single dose and measured upto 48 hrs by HPLC/MS analysis; type: ADME, organism-based; conditions: in vivo
A549 = assay: Antiproliferative activity against human A549 cells harboring homozygous KRAS G12S mutant assessed as inhibition of cell growth incubated for 72 hrs by MTT assay; type: functional, cell-based; conditions: A549, 72 h
MIA PaCa-2 = assay: Antiproliferative activity against human MIA PaCa-2 cells harboring homozygous KRAS G12C mutant assessed as inhibition of cell growth incubated for 72 hrs by MTT assay; type: functional, cell-based; conditions: MIA PaCa-2, 72 h
[11] = Cytotoxicity against HUVEC cells immortalized with TERT assessed as inhibition of cell growth incubated for 72 hrs by MTT assay; type: toxicity, cell-based; conditions: human
[12] = tested on: GTPase KRas (Homo sapiens), P01116 [G12C]; assay: Binding affinity to Cys80 residue of GDP bound human KRAS-4B G12C mutant (1 to 169 residues) expressed in Escherichia coli BL21 Rosetta cells at 150 to 500 uM measured after 96 hrs by 1H-15N HSQC NMR spectral analysis; conditions: dose 150-500 µM
[13] = Tmax in NOD-SCID mouse at 15 mg/kg, ip administered as single dose and measured upto 48 hrs by HPLC/MS analysis; type: ADME, organism-based; conditions: in vivo
[14] = Volume of distribution in NOD-SCID mouse at 15 mg/kg, ip administered as single dose and measured upto 48 hrs by HPLC/MS analysis; type: ADME, organism-based; conditions: in vivo
NCI-H1792 [15] = assay: Antiproliferative activity against human NCI-H1792 cells harboring KRAS G12C mutant assessed as reduction in cell viability at 2.5 uM incubated for 72 hrs by MTT assay; type: functional, cell-based
[16] = Half life in NOD-SCID mouse at 15 mg/kg, ip administered as single dose and measured upto 48 hrs by HPLC/MS analysis; type: ADME, organism-based; conditions: in vivo
[17] = Cytotoxicity against human CCD-986Sk cells assessed as inhibition of cell growth incubated for 72 hrs by MTT assay; type: toxicity, cell-based
[18] = tested on: GTPase KRas (Homo sapiens), P01116 [G12C]; assay: Covalent binding affinity to GDP-bound human KRAS-4B G12C mutant (1 to 169 residues) expressed in Escherichia coli BL21 Rosetta cells at 200 uM measured after 1 hr by Ellman's assay
SW480 = assay: Antiproliferative activity against human SW480 cells harboring homozygous KRAS G12V mutant assessed as inhibition of cell growth incubated for 72 hrs by MTT assay; type: functional, cell-based; conditions: SW480, 72 h
[19] = tested on: GTPase KRas (Homo sapiens), P01116 [G12C]; assay: Binding affinity to Cys118 residue of GDP bound human KRAS-4B G12C mutant (1 to 169 residues) expressed in Escherichia coli BL21 Rosetta cells at 150 to 500 uM measured after 96 hrs by 1H-15N HSQC NMR spectral analysis; conditions: dose 150-500 µM
NCI-H1792 [20] = assay: Antiproliferative activity against human NCI-H1792 cells harboring heterozygous KRAS G12C mutant assessed as inhibition of cell growth incubated for 72 hrs by MTT assay; type: functional, cell-based; conditions: NCI-H1792, 72 h
[21] = tested on: GTPase KRas (Homo sapiens), P01116 [G12C]; assay: Binding affinity to Cys51 residue of GDP bound human KRAS-4B G12C mutant (1 to 169 residues) expressed in Escherichia coli BL21 Rosetta cells at 150 to 500 uM measured after 96 hrs by 1H-15N HSQC NMR spectral analysis; conditions: dose 150-500 µM
[22] = tested on: GTPase KRas (Homo sapiens), P01116 [G12C]; assay: Covalent binding affinity to GDP-bound human KRAS-4B G12C mutant (1 to 169 residues) expressed in Escherichia coli BL21 Rosetta cells at 200 uM measured after 4 hrs by Ellman's assay
[23] = (§1) Toxicity in immunodeficient NOD-SCID mouse xenografted with human LCLC-103H cells harboring wild type KRAS assessed as body weight at 5 to 30 mg/kg, ip administered for 5 times at 5 mg/kg in first week followed by administration at 20 mg/kg 5 times in second week and further administered 30 mg/kg 3 times in third week measured 17 days post treatment initiation and 35 days post tumor transplantation (reference value: 2.6 g); type: organism-based; conditions: in vivo, 408 h, dose 5-30 mg/kg, time 17 day
[24] = as §1, with “NCI-H1792” for “LCLC-103H”, “harboring” for “harboring wild type”, “KRAS G12C mutant” for “KRAS”, “6.6” for “2.6”; type: organism-based; conditions: in vivo, 408 h, dose 5-30 mg/kg, time 17 day
[25] = AUCt in NOD-SCID mouse at 15 mg/kg, ip administered as single dose and measured upto 48 hrs by HPLC/MS analysis; type: ADME, organism-based; parameters: dose 15 mg/kg, time < 48 hrs, route ip; conditions: in vivo
[26] = as §1, with “NCI-H1792” for “LCLC-103H”, “harboring” for “harboring wild type”, “KRAS G12C mutant” for “KRAS”, “20” for “17”, “38” for “35”, “6.6” for “2.6”; type: organism-based; conditions: in vivo, 480 h, dose 5-30 mg/kg, time 20 day
SW1573 = assay: Antiproliferative activity against human SW1573 cells harboring homozygous KRAS G12C mutant assessed as inhibition of cell growth incubated for 72 hrs by MTT assay; type: functional, cell-based; conditions: SW1573, 72 h
[27] = tested on: GTPase KRas (Homo sapiens), P01116 [G12C]; assay: Binding affinity to Cys12 residue of GDP bound human KRAS-4B G12C mutant (1 to 169 residues) expressed in Escherichia coli BL21 Rosetta cells at 150 to 500 uM measured after 96 hrs by 1H-15N HSQC NMR spectral analysis; conditions: dose 150-500 µM

In the case of `O=C1Nc2cc(Cl)cc(Cl)c2C1=O`, the IC50 at 72 h [1] is reported as 47.9 µM, the IC50 (BXPC-3) is reported as 13.1 µM and the viability at 25 µM (NCI-H1792 [2]) is reported as < 50%. The IC50 (LCLC-103H cell line [3]) was 30 µM, the IC50 (PANC-1) was 38 µM and the Activity [4] was “Active”. The Cmax [5] was 337 ng/mL, the Activity (LCLC-103H cell line [6]) was 13.3 mm3 and the Activity (NCI-H1792 [7]) was 35.8%. The Activity [8] was “Active”, the IC50 [9] was 9.8 µM and the IC50 (NCI-H358) was 16.9 µM. For the same compound, the CL/F [10] was 31.6 mL/min, the IC50 (A549) was 44.4 µM and the IC50 (MIA PaCa-2) was 13.7 µM. The IC50 at 72 h [11] was 24.4 µM, the Activity [12] was “inactive” and the Tmax [13] was 0.25 h. The Vd [14] was 12096 mL, the Activity (NCI-H1792 [15]) was “Active” and the half-life [16] was 4.4 h. The IC50 at 72 h [17] was 42.7 µM, the Activity [18] was “Active” and the IC50 (SW480) was 14.8 µM. The Activity [19] was “inactive”, the IC50 (NCI-H1792 [20]) was 11 µM and the Activity [21] was “inactive”. For the same compound, the Activity [22] was 50%, the Activity [23] was 2.8 g and the Activity [24] was 6.9 g. The AUC(0-t) at 48 h [25] was 169 ng·h/mL, the Activity [26] was 9.1 g and the IC50 (SW1573) was 23.6 µM. The Activity [27] was “Active”.
